Laboratory results taken from patent publication US10981911B2, “Imidazopyrrolopyridine as inhibitors of the JAK family of kinases” (Janssen Pharmaceutica NV, priority 2016, dated 2021).
pIC50: −log10 of the molar value.

Key:
Assay type in all cases: biochemical
[1] = target: JAK1-JH1JH2 (Homo sapiens (Human), UniProt P23458); test: Enzymatic inhibition assay (RapidFire HTMS), JAK1; conditions: 12.5 μM ATP, 200 μM substrate; read-out: JAK1-JH2JH1 IC50
Outline: (§1)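 Quenched with 0.5% TFA plus internal-standard peptide; phosphorylated product quantified by RapidFire C4 SPE–ESI-MS, 11-point 1:3 or 1:4 dilutions in duplicate.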

[2] = target: JAK2-JH1JH2 (Homo sapiens (Human), UniProt O60674); test: Enzymatic inhibition assay (RapidFire HTMS), JAK2; conditions: 30 μM ATP, 40 μM substrate
Outline: as §1

[3] = target: JAK3-JH1JH2 (Homo sapiens (Human), UniProt P52333); test: Enzymatic inhibition assay (RapidFire HTMS), JAK3; conditions: 150 μM ATP, 40 μM substrate
Outline: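 JAK3 JH1JH2 reaction incubated 45 min at 25 °C, then quenched with 0.5% TFA containing 0.15 μM internal standard peptide. Phosphopeptide product measured by RapidFire C4 SPE–ESI MS (positive mode); inhibition from product decrease versus uninhibited enzyme, 11-point 1:3 or 1:4 dilutions in duplicate.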

[4] = target: Tyk2-JH1JH2 (Homo sapiens (Human), UniProt P29597, C1142A/C936A); test: Enzymatic inhibition assay (RapidFire HTMS), Tyk2; conditions: 50 μM ATP, 200 μM substrate
Outline: as §1

JAK2-JH1JH2, sequence (O60674 532-1132): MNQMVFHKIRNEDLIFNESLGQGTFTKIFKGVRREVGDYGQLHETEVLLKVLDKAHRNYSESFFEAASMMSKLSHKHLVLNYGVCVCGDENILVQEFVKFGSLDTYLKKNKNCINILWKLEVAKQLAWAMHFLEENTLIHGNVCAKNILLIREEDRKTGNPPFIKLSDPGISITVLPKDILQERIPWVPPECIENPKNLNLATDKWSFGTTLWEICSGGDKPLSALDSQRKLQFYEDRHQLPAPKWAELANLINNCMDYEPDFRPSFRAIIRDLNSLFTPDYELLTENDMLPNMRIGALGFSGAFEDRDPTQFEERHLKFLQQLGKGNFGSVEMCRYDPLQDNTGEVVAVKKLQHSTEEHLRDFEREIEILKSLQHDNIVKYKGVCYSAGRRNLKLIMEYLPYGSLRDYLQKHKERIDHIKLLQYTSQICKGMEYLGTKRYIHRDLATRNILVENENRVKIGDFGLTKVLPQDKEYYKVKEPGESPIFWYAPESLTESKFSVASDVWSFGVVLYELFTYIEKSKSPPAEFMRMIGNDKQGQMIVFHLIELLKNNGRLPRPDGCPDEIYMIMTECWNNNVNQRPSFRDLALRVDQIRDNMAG
JAK1-JH1JH2, sequence (P23458 574-1154): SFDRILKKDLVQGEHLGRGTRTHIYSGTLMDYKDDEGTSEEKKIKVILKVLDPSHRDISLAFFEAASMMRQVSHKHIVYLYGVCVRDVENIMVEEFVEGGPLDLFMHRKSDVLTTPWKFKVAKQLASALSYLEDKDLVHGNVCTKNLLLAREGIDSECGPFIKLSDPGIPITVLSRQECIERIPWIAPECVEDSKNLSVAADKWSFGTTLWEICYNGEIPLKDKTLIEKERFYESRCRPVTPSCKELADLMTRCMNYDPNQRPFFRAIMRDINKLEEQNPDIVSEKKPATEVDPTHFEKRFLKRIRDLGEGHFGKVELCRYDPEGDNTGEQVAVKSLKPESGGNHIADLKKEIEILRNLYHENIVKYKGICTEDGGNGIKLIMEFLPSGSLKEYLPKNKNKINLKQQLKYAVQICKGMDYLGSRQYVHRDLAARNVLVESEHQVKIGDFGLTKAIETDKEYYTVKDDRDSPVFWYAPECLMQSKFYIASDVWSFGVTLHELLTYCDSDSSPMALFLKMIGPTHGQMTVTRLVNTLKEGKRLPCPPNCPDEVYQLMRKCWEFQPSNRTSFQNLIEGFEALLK
JAK3-JH1JH2, sequence (P52333 512-1124): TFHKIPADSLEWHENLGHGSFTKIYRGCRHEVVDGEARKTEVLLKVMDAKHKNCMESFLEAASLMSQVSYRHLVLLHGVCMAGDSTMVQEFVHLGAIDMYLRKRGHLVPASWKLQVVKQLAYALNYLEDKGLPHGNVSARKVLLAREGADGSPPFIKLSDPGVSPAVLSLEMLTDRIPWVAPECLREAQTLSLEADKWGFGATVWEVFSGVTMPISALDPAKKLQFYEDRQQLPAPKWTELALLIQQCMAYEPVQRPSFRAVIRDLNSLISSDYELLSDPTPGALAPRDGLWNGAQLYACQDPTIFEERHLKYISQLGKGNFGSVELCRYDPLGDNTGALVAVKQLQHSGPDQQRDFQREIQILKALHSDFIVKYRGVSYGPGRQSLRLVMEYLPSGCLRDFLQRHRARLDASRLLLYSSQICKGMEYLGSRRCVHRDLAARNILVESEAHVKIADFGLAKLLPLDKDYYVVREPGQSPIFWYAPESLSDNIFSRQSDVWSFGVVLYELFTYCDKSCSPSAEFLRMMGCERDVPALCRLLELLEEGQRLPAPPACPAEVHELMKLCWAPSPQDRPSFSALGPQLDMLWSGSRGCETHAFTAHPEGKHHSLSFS
Tyk2-JH1JH2, sequence (P29597 580-1182 C936A/C1142A): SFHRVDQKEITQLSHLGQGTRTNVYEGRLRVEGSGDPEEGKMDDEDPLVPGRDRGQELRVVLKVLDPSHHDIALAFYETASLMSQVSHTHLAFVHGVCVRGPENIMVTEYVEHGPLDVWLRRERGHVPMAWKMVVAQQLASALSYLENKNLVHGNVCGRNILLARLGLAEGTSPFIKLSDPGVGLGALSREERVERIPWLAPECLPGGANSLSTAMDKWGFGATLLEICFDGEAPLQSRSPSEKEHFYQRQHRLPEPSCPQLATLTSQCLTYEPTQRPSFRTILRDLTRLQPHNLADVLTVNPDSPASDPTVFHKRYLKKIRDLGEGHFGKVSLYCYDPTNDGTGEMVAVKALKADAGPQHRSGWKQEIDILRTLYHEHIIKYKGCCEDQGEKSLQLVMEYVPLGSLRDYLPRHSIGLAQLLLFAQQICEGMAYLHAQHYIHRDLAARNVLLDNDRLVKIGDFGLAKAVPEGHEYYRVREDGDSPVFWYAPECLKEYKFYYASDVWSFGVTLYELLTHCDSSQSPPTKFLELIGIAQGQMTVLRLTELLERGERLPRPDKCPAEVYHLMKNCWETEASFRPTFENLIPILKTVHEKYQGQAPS

SMILES	pIC50 [1]	pIC50 [2]	pIC50 [3]	pIC50 [4]
N#CC[C@H]1CC[C@H](n2c(C3CCN(c4ccc(C#N)cc4)CC3)nc3cnc4[nH]ccc4c32)CC1 [Ex. 76, 4-(4-(1-((1r,4r)-4-(Cyanomethyl)cyclohexyl)-1,6-dihydroimidazo[4,5-d]pyrrolo[2,3-b]pyridin-2-yl)piperidin-1-yl)benzonitrile]	9.40	7.63	5.92	7.77
N#CC[C@H]1CC[C@H](n2c(CNS(=O)(=O)c3ccccc3)nc3cnc4[nH]ccc4c32)CC1 [Ex. 77, N-((1-((1r,4r)-4-(Cyanomethyl)cyclohexyl)-1,6-dihydroimidazo[4,5-d]pyrrolo[2,3-b]pyridin-2-yl)methyl)benzenesulfonamide]	9.40	7.40	5.72	7.65
N#CC[C@H]1CC[C@H](n2c(CC(=O)NC3CC4CCC3C4)nc3cnc4[nH]ccc4c32)CC1 (stereo partly drawn) [Ex. 78, N-((1S,4R)-Bicyclo[2.2.1]heptan-2-yl)-2-(1-((1r,4r)-4-(cyanomethyl)cyclohexyl)-1,6-dihydroimidazo[4,5-d]pyrrolo[2,3-b]pyridin-2-yl)acetamide]	9.40	7.95	7.16	7.87
N#CC[C@H]1CC[C@H](n2c(CC(=O)NCc3ccc(OC(F)F)cc3)nc3cnc4[nH]ccc4c32)CC1 [Ex. 79, 2-(1-((1r,4r)-4-(cyanomethyl)cyclohexyl)-1,6-dihydroimidazo[4,5-d]pyrrolo[2,3-b]pyridin-2-yl)-N-(4-(difluoromethoxy)benzyl)acetamide]	9.40	7.97	6.65	7.88
N#CC[C@H]1CC[C@H](n2c(C(=O)NCC3(O)COC3)nc3cnc4[nH]ccc4c32)CC1 [Ex. 80, 1-((1r,4r)-4-(Cyanomethyl)cyclohexyl)-N-((3-hydroxyoxetan-3-yl)methyl)-1,6-dihydroimidazo[4,5-d]pyrrolo[2,3-b]pyridine-2-carboxamide]	9.40	8.68	7.05	8.39
Cc1cc(-c2nc3cnc4[nH]ccc4c3n2[C@H]2CC[C@H](CC#N)CC2)[nH]n1 [Ex. 81, 2-((1r,4r)-4-(2-(3-Methyl-1H-pyrazol-5-yl)imidazo[4,5-d]pyrrolo[2,3-b]pyridin-1(6H)-yl)cyclohexyl)acetonitrile]	9.40	8.43	6.93	8.22
N#CC[C@H]1CC[C@H](n2c(CNC(=O)c3ccc(C#N)cc3)nc3cnc4[nH]ccc4c32)CC1 [Ex. 82, 4-Cyano-N-((1-((1r,4r)-4-(cyanomethyl)cyclohexyl)-1,6-dihydroimidazo[4,5-d]pyrrolo[2,3-b]pyridin-2-yl)methyl)benzamide]	9.40	7.87	6.72	8.28
N#CC[C@H]1CC[C@H](n2c(CC(=O)NC3CCSCC3)nc3cnc4[nH]ccc4c32)CC1 [Ex. 83, 2-(1-((1r,4r)-4-(Cyanomethyl)cyclohexyl)-1,6-dihydroimidazo[4,5-d]pyrrolo[2,3-b]pyridin-2-yl)-N-(tetrahydro-2H-thiopyran-4-yl)acetamide]	9.40	8.39	7.52	8.03
CN1CCC(NC(=O)c2nc3cnc4[nH]ccc4c3n2[C@H]2CC[C@H](CC#N)CC2)CC1 [Ex. 84, 1-((1r,4r)-4-(Cyanomethyl)cyclohexyl)-N-(1-methylpiperidin-4-yl)-1,6-dihydroimidazo[4,5-d]pyrrolo[2,3-b]pyridine-2-carboxamide]	9.40	7.57	5.95	7.98
CC(=N)NCc1nc2cnc3[nH]ccc3c2n1[C@H]1CC[C@H](CC#N)CC1 [Ex. 86, N-((1-((1r,4r)-4-(Cyanomethyl)cyclohexyl)-1,6-dihydroimidazo[4,5-d]pyrrolo[2,3-b]pyridin-2-yl)methyl)acetimidamide]	9.40	7.85	5.64	8.59
N#CC[C@H]1CC[C@H](n2c(CC(=O)N3CCC(Cc4ccccc4)CC3)nc3cnc4[nH]ccc4c32)CC1 [Ex. 87, 2-((1r,4r)-4-(2-(2-(4-Benzylpiperidin-1-yl)-2-oxoethyl)imidazo[4,5-d]pyrrolo[2,3-b]pyridin-1(6H)-yl)cyclohexyl)acetonitrile]	> 9.40	7.56	6.56	7.99
CNc1nccc(-c2nc3cnc4[nH]ccc4c3n2[C@H]2CC[C@H](CC#N)CC2)n1 [Ex. 89, 2-((1r,4r)-4-(2-(2-(Methylamino)pyrimidin-4-yl)imidazo[4,5-d]pyrrolo[2,3-b]pyridin-1(6H)-yl)cyclohexyl)acetonitrile]	9.40	8.47	7.22	7.74
N#CC[C@H]1CC[C@H](n2c(CC(=O)N3CCCCC3)nc3cnc4[nH]ccc4c32)CC1 [Ex. 90, 2-((1r,4r)-4-(2-(2-Oxo-2-(piperidin-1-yl)ethyl)imidazo[4,5-d]pyrrolo[2,3-b]pyridin-1(6H)-yl)cyclohexyl)acetonitrile]	> 8.40	8.09	7.07	~8.62
CS(=O)(=O)c1ccc(-c2ccc(-c3nc4cnc5[nH]ccc5c4n3[C@H]3CC[C@H](CC#N)CC3)cc2)cc1 [Ex. 91, 2-((1r,4r)-4-(2-(4′-(Methylsulfonyl)-[1,1′-biphenyl]-4-yl)imidazo[4,5-d]pyrrolo[2,3-b]pyridin-1(6H)-yl)cyclohexyl)acetonitrile]	9.40	7.52	6.07	7.45
N#CC[C@H]1CC[C@H](n2c(-c3ccc(C(=O)c4ccccc4)cc3)nc3cnc4[nH]ccc4c32)CC1 [Ex. 92, 2-((1r,4r)-4-(2-(4-Benzoylphenyl)imidazo[4,5-d]pyrrolo[2,3-b]pyridin-1(6H)-yl)cyclohexyl)acetonitrile]	9.40	7.93	6.06	7.47
CC(C)(O)C1CCN(C(=O)Cc2nc3cnc4[nH]ccc4c3n2[C@H]2CC[C@H](CC#N)CC2)CC1 [Ex. 93, 2-((1r,4r)-4-(2-(2-(4-(2-Hydroxypropan-2-yl)piperidin-1-yl)-2-oxoethyl)imidazo[4,5-d]pyrrolo[2,3-b]pyridin-1(6H)-yl)cyclohexyl)acetonitrile]	9.30	7.92	6.74	8.35
N#CC[C@H]1CC[C@H](n2c(CNC(=O)CC3CC3)nc3cnc4[nH]ccc4c32)CC1 [Ex. 94, N-((1-((1r,4r)-4-(Cyanomethyl)cyclohexyl)-1,6-dihydroimidazo[4,5-d]pyrrolo[2,3-b]pyridin-2-yl)methyl)-2-cyclopropylacetamide]	9.30	7.69	6.58	7.92
N#CC[C@H]1CC[C@H](n2c(CN/C(CC3CCCCC3)=N/O)nc3cnc4[nH]ccc4c32)CC1 [Ex. 95]	9.30	9.22	7.73	8.85
N#CC[C@H]1CC[C@H](n2c(-c3ccc(C#N)cc3)nc3cnc4[nH]ccc4c32)CC1 [Ex. 96, 4-(1-((1r,4r)-4-(Cyanomethyl)cyclohexyl)-1,6-dihydroimidazo[4,5-d]pyrrolo[2,3-b]pyridin-2-yl)benzonitrile]	9.30	7.47	6.34	7.30
N#CC[C@H]1CC[C@H](n2c(CNS(=O)(=O)c3ccc(C#N)cc3)nc3cnc4[nH]ccc4c32)CC1 [Ex. 97, 4-Cyano-N-((1-((1r,4r)-4-(cyanomethyl)cyclohexyl)-1,6-dihydroimidazo[4,5-d]pyrrolo[2,3-b]pyridin-2-yl)methyl)benzenesulfonamide]	9.30	7.35	5.41	7.57
CSc1nccc(-c2nc3cnc4[nH]ccc4c3n2[C@H]2CC[C@H](CC#N)CC2)n1 [Ex. 98, 2-((1r,4r)-4-(2-(2-(Methylthio)pyrimidin-4-yl)imidazo[4,5-d]pyrrolo[2,3-b]pyridin-1(6H)-yl)cyclohexyl)acetonitrile]	9.30	8.03	6.93	7.89
C[Si](C)(C)CNC(=O)Cc1nc2cnc3[nH]ccc3c2n1[C@H]1CC[C@H](CC#N)CC1 [Ex. 99, 2-(1-((1r,4r)-4-(Cyanomethyl)cyclohexyl)-1,6-dihydroimidazo[4,5-d]pyrrolo[2,3-b]pyridin-2-yl)-N-((trimethylsilyl)methyl)acetamide]	9.30	7.51	6.56	7.53
CC(C)(C)C/C(=N/O)NCc1nc2cnc3[nH]ccc3c2n1[C@H]1CC[C@H](CC#N)CC1 [Ex. 101]	9.30	7.53	6.74	8.17
N#CC[C@H]1CC[C@H](n2c(CC(=O)NCC(O)c3ccccc3)nc3cnc4[nH]ccc4c32)CC1 (stereo partly shown) [Ex. 102, 2-(1-((1r,4r)-4-(Cyanomethyl)cyclohexyl)-1,6-dihydroimidazo[4,5-d]pyrrolo[2,3-b]pyridin-2-yl)-N-(2-hydroxy-2-phenylethyl)acetamide]	9.30	7.94	6.70	8.13
N#CC[C@H]1CC[C@H](n2c(CC(=O)N3CCC(C#N)CC3)nc3cnc4[nH]ccc4c32)CC1 [Ex. 105, 1-(2-(1-((1r,4r)-4-(Cyanomethyl)cyclohexyl)-1,6-dihydroimidazo[4,5-d]pyrrolo[2,3-b]pyridin-2-yl)acetyl)piperidine-4-carbonitrile]	9.22	7.71	6.69	8.16
